We go through five molecules from patent US7084270B2, “Pyrimido compounds having antiproliferative activity” (Hoffman-La Roche Inc., priority 2002, dated 2006).

Molecules are shown by their SMILES. pIC50: −log10 of the molar value. Read-outs that look alike come from different tables or passages of the source.

The subject of data set [1] is Human umbilical vein endothelial cells (HUVEC), FGF-stimulated. Put plainly: FGF-stimulated HUVEC proliferation assay (BrdU). The data set is classed as cell-based. As to conditions: BrdU labeling, FGF 5 ng per mL, 24 hour exposure, read-out: HUVEC/bFGFR IC50. The method, then:
(§1) The antiproliferative activity of test compounds of this invention in cell-based assays was evaluated by BrdU assay using the BrdU kit (Roche Biochemicals 1-647-229). Human umbilical vein endothelial cells (Clonetics CC-2519) were cultured in EGM-2 (Clonetics CC-3162) medium and seeded at 10000 cells per well in a volume of 200 μL of EGM-2 (Clonetics CC-3162) media in a 96-well flat bottom plates (Costar 3595) overnight. After 24 hours of growth at 37° C. with 5% CO2, the incubation media was removed slowly by aspiration and the content of each well was washed with 300 μL pre-warmed EBM-2 (Clonetics CC-3156) containing 50 μg per mL of gentamycin and 50 ng per mL of amphotercin-B (Clonetics CC-4083). Subsequently, the remaining media was again aspirated and replaced with 160 μL per well of serum starvation media (EBM-2 supplemented with 1% heat inactivated FBS (Clonetics CC-4102), 50 μg per mL gentamycin and 50 ng per mL of amphotercin-B (Clonetics CC-4083), 10 units per mL of Wyeth-Ayerst heparin (NDC0641-0391-25), and 2 mM L-glutamine (GIBCO 25030-081). After serum starving the cells for 24 hours, 20 μL of test compound at 10× test concentration in serum starvation medium with 2.5% DMSO was added to the appropriate wells. The control wells contained 20 μL of serum starvation medium with 2.5% DMSO. Plates were returned to the incubator for 2 hours. After pre-incubating the cells with the test compounds for 2 hours, 20 μL of growth factors at 10×assay concentration diluted in serum starvation media, FGF at 50 ng per mL, or VEGF (R&D systems 293-VE) at 200 ng per mL were added. The final concentration of FGF in the assay was 5 ng per mL, and the final concentration of VEGF in the assays was 20 ng per mL. The growth factor free control wells had 20 μL per well of serum starvation media with the same amount of BSA as the wells with growth factors. The plates were returned to the incubator for an additional 22 hours.
(§2) After 24 hour exposure to the test compounds, the cells were labeled with BrdU (Roche Biochemicals 1-647-229), by adding 20 μL per well of BrdU labeling reagent that has been diluted (1:100) in serum starvation medium. The plates were then returned to the incubator for 4 hours. The labeling medium was removed by draining the medium onto paper towels. […] The plates were read at 450 nm with reference wavelength of 650 nm. The percent inhibition for each test compound was calculated by subtracting the absorbency of the blank (no cells) wells from all wells, then subtracting the division of the average absorbency of each test duplicate by the average of the controls from 1. […] The IC50 is determined from the linear regression of a plot of the logarithm of the concentration versus percent inhibition.
(In general: Incorporation of labelled thymidine or its analogues reports DNA synthesis.)

Data set [2] relates to Human umbilical vein endothelial cells (HUVEC), VEGF-stimulated. Description: VEGF-stimulated HUVEC proliferation assay (BrdU). Format: cell-based. As to conditions: BrdU labeling, VEGF 20 ng per mL, 24 hour exposure, read-out: HUVEC/VEFG IC50. The method, then: as §1, with “After pre-incubating the cells with the test compounds for 2 hours, 20 μL of growth factors at 10×assay concentration diluted in serum starvation media, FGF at 50 ng per mL, or VEGF (R&D systems 293-VE) at 200 ng per mL were added. The final concentration of FGF in the assay was 5 ng per mL, and the final concentration of VEGF in the assays was 20 ng per mL. The growth factor free control wells had 20 μL per well of serum starvation media with the same amount of BSA as the wells with growth factors. The plates were returned to the incubator for an additional 22 hours.” left out
as §2, with “medium.” for “medium. The plates were then returned to the incubator for 4 hours. The labeling medium was removed by draining the medium onto paper towels.”

In the next data set the target is T1, FGFR.
T1 construct: fused on or other part: GST tag
Put plainly: FGFR kinase HTRF assay. The data set is classed as biochemical. Particulars: enzyme inhibition, 10 μM ATP. The method, then:
(§3) To determine inhibition of KDR, FGFR, EGFR, and PDGFR activity, kinase assays were conducted using an HTRF (Homogeneous Time Resolved Fluorescence) assay. This assay is described in A. J. Kolb et. al., Drug Discovery Today, 1998, 3(7), p 333.
(§4) Kinase activity assays were performed in 96-well polypropylene plates (Falcon) with a total volume of 90 μL in each well. Each well contained 1 μM KDR substrate (Biotin-EEEEYFELVAKKKK), 1 nM activated KDR, and a test compound with one of 8 assay concentrations ranging from 100 μM to […] (1:5 serial dilution). The kinase activity assay was done in the presence of 100 mM HEPES, pH 7.4, 1 mM DTT, 0.1 mM Na2VO4, 25 mM MgCl2, 50 mM NaCl (from KDR stock solution), 1% DMSO (from compound), 0.3 mM ATP (at Km concentration) and 0.02% BSA. The reaction was incubated at 37° C. for 30 minutes. To stop the KDR reaction, 72 μL of reaction mixture was transferred into a STOP plate containing 18 μL of revelation buffer (20 mM EDTA, 50 mM HEPES, pH 7.4, 0.02% BSA, 10 nM Eu-labelled anti-pY antibody (final conc. 2 nM), and 100 nM streptavidin (final conc. 20 nM)). After mixing, 35 μL of solution was transferred into duplicate wells of a 384-well black plate (Costar), and read at 615/665 nm on a Wallac Victor 5 reader.
FGFR, EGFR, and PDGFR activity assays were carried out as described above for the KDR activity assay with the following differences. GST-tagged FGFR enzyme was activated at room temperature for 1 hour in the following activation buffer: 100 mM HEPES, pH 7.4, 50 mM NaCl, 20 mM MgCl2, and 4 mM ATP. […] The rest of the assay was performed in the same manner as KDR assay.
(§5) Compound IC50 values were determined from duplicate sets of data, and calculated by using Excel and fitting data to equation Y=[(a−b)/{1+(X/c)^d]+b, where a and b are enzyme activity in the presence of no test inhibitor compound and an infinite amount of inhibitor test compound, respectively, c is the IC50 and d is the hill constant of the compound response. The IC50 value is the concentration of test compound that reduces by 50% the enzyme activity under the test conditions described.
A general note: In TR-FRET formats the signal depends on donor and acceptor labels being close together.

A further data set deals with T2, KDR (Homo sapiens, UniProt P35968).
T2 construct: EEE-tag
T2 sequence (P35968 20-1356, species assumed): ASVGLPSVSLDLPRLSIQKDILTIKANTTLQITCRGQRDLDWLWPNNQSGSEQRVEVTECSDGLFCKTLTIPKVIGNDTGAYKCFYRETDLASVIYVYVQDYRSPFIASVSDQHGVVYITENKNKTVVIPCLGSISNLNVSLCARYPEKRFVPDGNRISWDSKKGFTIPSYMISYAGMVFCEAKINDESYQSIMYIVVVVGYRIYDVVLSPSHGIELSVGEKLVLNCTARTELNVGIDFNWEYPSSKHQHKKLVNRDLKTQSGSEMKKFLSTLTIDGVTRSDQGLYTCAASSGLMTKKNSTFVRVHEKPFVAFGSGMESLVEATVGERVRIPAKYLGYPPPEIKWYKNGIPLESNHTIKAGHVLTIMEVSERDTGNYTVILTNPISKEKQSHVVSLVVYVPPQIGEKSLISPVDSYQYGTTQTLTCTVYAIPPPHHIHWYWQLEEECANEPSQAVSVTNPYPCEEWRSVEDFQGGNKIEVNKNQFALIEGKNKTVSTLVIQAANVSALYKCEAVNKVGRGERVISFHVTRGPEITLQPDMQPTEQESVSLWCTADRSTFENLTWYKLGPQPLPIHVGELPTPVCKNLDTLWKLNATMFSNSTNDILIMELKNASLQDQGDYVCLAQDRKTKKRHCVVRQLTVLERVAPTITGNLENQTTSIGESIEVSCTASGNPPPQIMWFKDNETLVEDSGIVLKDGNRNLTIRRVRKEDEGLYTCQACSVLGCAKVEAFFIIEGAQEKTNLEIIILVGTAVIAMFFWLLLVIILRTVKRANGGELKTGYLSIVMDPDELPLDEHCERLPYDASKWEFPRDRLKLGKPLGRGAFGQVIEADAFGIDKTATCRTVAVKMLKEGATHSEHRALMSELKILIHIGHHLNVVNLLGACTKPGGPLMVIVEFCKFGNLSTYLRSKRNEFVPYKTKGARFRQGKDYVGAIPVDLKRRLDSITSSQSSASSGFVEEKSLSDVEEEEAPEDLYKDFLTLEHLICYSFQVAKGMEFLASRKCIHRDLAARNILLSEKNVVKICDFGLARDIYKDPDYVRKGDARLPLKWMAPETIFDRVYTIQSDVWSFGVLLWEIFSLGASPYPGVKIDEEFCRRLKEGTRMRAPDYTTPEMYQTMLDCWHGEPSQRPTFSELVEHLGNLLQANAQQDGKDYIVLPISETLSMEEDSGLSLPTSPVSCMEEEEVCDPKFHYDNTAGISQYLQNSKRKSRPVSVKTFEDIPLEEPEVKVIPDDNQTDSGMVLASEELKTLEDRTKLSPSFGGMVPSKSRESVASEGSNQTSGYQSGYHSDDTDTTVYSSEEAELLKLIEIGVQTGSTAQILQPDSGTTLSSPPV
Description: KDR kinase HTRF assay. Format: biochemical. As to conditions: enzyme inhibition, 0.3 mM ATP. Here is the method:
as §3
Prior to kinase reaction, recombinant EEE-tagged KDR was activated in the presence of activation buffer (50 mM HEPES, pH 7.4, 1 mM DTT, 10% glycerol, 150 mM NaCl, 0.1 mM EDTA, 26 mM MgCl2, and 4 mM ATP). The enzyme was incubated at 4° C. for 1 hour.
as §4, §5

The next data set has as its target EGFR (Homo sapiens, UniProt P00533). Put plainly: EGFR kinase HTRF assay. The data set is classed as biochemical. As to conditions: enzyme inhibition, 0.5 μM ATP. Here is the method: as §3, §4
The rest of the assay was performed in the same manner as the KDR assay.
as §5

In the next data set the target is PDGFR. Description: PDGFR kinase HTRF assay. The data set is classed as biochemical. As to conditions: enzyme inhibition, 2.3 μM ATP. Here is the method:
as §3, §4
The PDGFR kinase activity assay was performed with 1 μM substrate (Biotin-EEEEYFELV), 1.0 nM PDGFR, test compounds, 100 mM HEPES, pH 7.4, 1 mM DTT, 5 mM MgCl2, 2 mM MnCl2, 1% DMSO, 2.3 μM ATP (Km for PDGFR), 0.1 mM Na2VO4, and 0.02% BSA. The rest of the assay was performed in the same manner as the KDR assay.
as §5

Sequence of EGFR (P00533 25-1210, species assumed): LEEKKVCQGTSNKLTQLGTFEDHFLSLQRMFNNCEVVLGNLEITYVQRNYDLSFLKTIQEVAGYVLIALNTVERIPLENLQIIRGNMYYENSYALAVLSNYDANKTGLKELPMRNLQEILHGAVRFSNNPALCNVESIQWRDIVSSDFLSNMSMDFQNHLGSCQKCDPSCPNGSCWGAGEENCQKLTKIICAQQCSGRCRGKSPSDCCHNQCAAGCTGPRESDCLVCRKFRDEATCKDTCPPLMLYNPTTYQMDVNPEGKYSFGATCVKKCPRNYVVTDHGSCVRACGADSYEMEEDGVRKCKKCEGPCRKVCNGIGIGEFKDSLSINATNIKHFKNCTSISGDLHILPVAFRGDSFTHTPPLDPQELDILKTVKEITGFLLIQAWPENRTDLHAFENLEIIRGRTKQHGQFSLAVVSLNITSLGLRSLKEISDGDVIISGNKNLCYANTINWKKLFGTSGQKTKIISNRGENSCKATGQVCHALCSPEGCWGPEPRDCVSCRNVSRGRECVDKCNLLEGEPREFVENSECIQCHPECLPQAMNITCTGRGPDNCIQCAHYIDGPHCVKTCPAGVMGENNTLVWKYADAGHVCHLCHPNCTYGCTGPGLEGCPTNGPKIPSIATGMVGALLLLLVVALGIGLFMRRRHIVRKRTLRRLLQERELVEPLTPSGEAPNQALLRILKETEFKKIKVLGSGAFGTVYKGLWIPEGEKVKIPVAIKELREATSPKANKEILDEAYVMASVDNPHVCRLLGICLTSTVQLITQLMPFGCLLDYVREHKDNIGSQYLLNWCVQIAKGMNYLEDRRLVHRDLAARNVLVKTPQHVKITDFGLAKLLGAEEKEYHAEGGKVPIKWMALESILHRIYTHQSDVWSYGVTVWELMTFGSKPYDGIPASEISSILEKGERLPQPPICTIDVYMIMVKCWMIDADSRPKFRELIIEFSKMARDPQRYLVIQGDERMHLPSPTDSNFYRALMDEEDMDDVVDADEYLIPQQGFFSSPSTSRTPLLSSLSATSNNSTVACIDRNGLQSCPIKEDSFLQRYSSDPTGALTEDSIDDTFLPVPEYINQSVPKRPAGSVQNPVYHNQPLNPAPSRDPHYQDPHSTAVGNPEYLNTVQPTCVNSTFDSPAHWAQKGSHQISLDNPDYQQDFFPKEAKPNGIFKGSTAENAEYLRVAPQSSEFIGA

For the molecule `COc1ccc(N2Cc3cnc(Nc4ccccc4)nc3N(c3ccccc3)C2=O)cc1` [Example 1g, 3-(4-Methoxyphenyl)-1-phenyl-7-(phenylamino)-1,3,4-trihydropyrimidino[4,5-d]pyrimidin-2-one], the pIC50 in data set [1] (Homo sapiens, HUVEC, 24 h) was 6.51; in data set [2], 6.92; against FGFR, 6.72; on KDR it was 7.36; on EGFR it was 6.44; against PDGFR it was 6.89.
For orientation: melting point means the temperature, or range, at which the solid turns liquid. Consider `COc1ccc(N2Cc3cnc(Nc4ccccc4)nc3N(c3ccccc3)C2=O)cc1.CS(=O)(=O)O` [Example 1h, 3-(4-Methoxyphenyl)-1-phenyl-7-(phenylamino)-1,3,4-trihydropyrimidino[4,5-d]pyrimidin-2-one methanesulfonate salt], for which the melting point lay within 245 to 251 °C. Also, the pIC50 in data set [1] (methanesulfonate salt) was 6.37. On FGFR (methanesulfonate salt), the pIC50 was 6.77. The pIC50 against KDR was 7.12. The same molecule showed a pIC50 against EGFR of 6.46. The pIC50 on PDGFR (methanesulfonate salt) was 6.82.
`COc1ccc(N2Cc3cnc(N(C(=O)OCOC(=O)CN(C)C)c4ccccc4)nc3N(c3ccccc3)C2=O)cc1` [Example 5a]: the melting point worked out at 172 °C.
Regarding `COc1ccc(N2Cc3cnc(Nc4ccc(O)cc4)nc3N(c3ccccc3)C2=O)cc1` [Example 18, 7-[(4-Hydroxyphenyl)amino]-3-(4-methoxyphenyl)-1-phenyl-1,3,4-trihydropyrimidino[4,5-d]pyrimidin-2-one], the pIC50 in data set [1] (Homo sapiens, HUVEC, 24 h) is 6.82; in data set [2], 7.20; on FGFR, 6.96; on KDR, 7.54; on EGFR, 6.89; against PDGFR, 7.19.
Regarding `COc1ccc(Nc2ncc3c(n2)N(c2ccccc2)C(=O)N(c2ccc(OC)cc2)C3)cc1` [Example 20, 3-(4-Methoxyphenyl)-7-[(4-methoxyphenyl)amino]-1-phenyl-1,3,4-trihydropyrimidino[4,5-d]pyrimidin-2-one], the pIC50 is 6.46 in data set [1] (Homo sapiens, HUVEC, 24 h); 7.02 in data set [2]; 7.04 against FGFR; 7.62 against KDR; 6.74 on EGFR; 7.09 at PDGFR.
